Data from patent US10253052B2, “HBED-bisphosphonates, radiometal conjugates and their use as theranostic agents” (Five Eleven Pharma Inc., priority 2015, dated 2019).

Columns and labels:
[1] = In vivo biodistribution in mice; set-up: species or system normal CD-1 male mice; settings: iv
Procedure: Biodistribution experiments were performed by intravenously administering ^68Ga labeled 1a-h, 2, 3, BPAMD, and [^18F]NaF into normal, healthy male CD-1 mice (25-30 g). The injection activity was 20-30 μCi/animal. […] Organs of interest were harvested, weighed, and counts of radioactivity were measured by a gamma counter. The biodistribution of each sample was calculated as a percentage of the injected dose per gram of wet tissue weight (% ID/g). Tibia and femur bones were harvested and counted as bone samples.

[2] = In vitro binding to hydroxyapatite; settings: 20 mg hydroxyapatite in saline, 10 min at room temperature
Procedure: Hydroxyapatite (20 mg, Sigma-Aldrich, reagent grade powder) was incubated in isotonic saline (1 mL) for 24 h. Subsequently, either ^68Ga labeled 1a-h, 2, 3, BPAMD, or [^18F]NaF (1 μCi) was added to the hydroxyapatite suspension. After vortexing for 10 seconds, the suspension was incubated for 10 min at room temperature. The samples were then centrifuged at 10,000 rpm for 3 min and the supernatant was removed. The hydroxyapatite fraction was washed twice with saline (1 mL). Radioactivity in the combined supernatants and the hydroxyapatite fraction was measured using a gamma counter. The proportion of the ^68Ga complex binding to hydroxyapatite was determined as percent of ^68Ga absorbed to hydroxyapatite.

Structure (SMILES): O=C([O-])CN(CCN(CC(=O)[O-])Cc1cc(CCC(=O)O)ccc1[O-])Cc1cc(CCC(=O)O)ccc1[O-].[68Ga+3] [[^68Ga]HBED-CC, reference compound]
- bone to blood ratio ([1]; 2 min): 0.2
- bone to muscle ratio ([1]; 2 min): 0.8
- Biodistribution: Blood ([1]; 2 min post injection): 7.66 ± 0.75 % dose/g
- Biodistribution: Bone ([1]; 2 min post injection): 1.85 ± 0.05 % dose/g
- Biodistribution: Brain ([1]; 2 min post injection): 0.29 ± 0.08 % dose/g
- Biodistribution: Heart ([1]; 2 min post injection): 2.74 ± 0.34 % dose/g
- Biodistribution: Kidney ([1]; 2 min post injection): 27.2 ± 0.64 % dose/g
- Biodistribution: Liver ([1]; 2 min post injection): 1.75 ± 0.08 % dose/g
- Biodistribution: Lung ([1]; 2 min post injection): 4.27 ± 0.34 % dose/g
- Biodistribution: Muscle ([1]; 2 min post injection): 2.30 ± 0.13 % dose/g
- Biodistribution: Pancreas ([1]; 2 min post injection): 1.60 ± 0.12 % dose/g
- Biodistribution: Skin ([1]; 2 min post injection): 3.18 ± 0.43 % dose/g
- Biodistribution: Spleen ([1]; 2 min post injection): 1.69 ± 0.18 % dose/g
- bone to blood ratio ([1]; 30 min): 0.3
- bone to muscle ratio ([1]; 30 min): 0.9
- Biodistribution: Blood ([1]; 30 min (0.5 hr) post injection): 0.83 ± 0.09 % dose/g
- Biodistribution: Bone ([1]; 30 min (0.5 hr) post injection): 0.28 ± 0.06 % dose/g
- Biodistribution: Brain ([1]; 30 min (0.5 hr) post injection): 0.04 ± 0.01 % dose/g
- Biodistribution: Heart ([1]; 30 min (0.5 hr) post injection): 0.34 ± 0.06 % dose/g
- Biodistribution: Kidney ([1]; 30 min (0.5 hr) post injection): 3.22 ± 0.41 % dose/g
- Biodistribution: Liver ([1]; 30 min (0.5 hr) post injection): 0.38 ± 0.08 % dose/g
- Biodistribution: Lung ([1]; 30 min (0.5 hr) post injection): 0.58 ± 0.07 % dose/g
- Biodistribution: Muscle ([1]; 30 min (0.5 hr) post injection): 0.32 ± 0.06 % dose/g
- Biodistribution: Pancreas ([1]; 30 min (0.5 hr) post injection): 0.26 ± 0.01 % dose/g
- Biodistribution: Skin ([1]; 30 min (0.5 hr) post injection): 0.64 ± 0.08 % dose/g
- Biodistribution: Spleen ([1]; 30 min (0.5 hr) post injection): 0.26 ± 0.04 % dose/g
- bone to blood ratio ([1]; 60 min): 1.7
- bone to muscle ratio ([1]; 60 min): 2.3
- Biodistribution: Blood ([1]; 60 min (1 hr) post injection): 0.14 ± 0.04 % dose/g
- Biodistribution: Bone ([1]; 60 min (1 hr) post injection): 0.25 ± 0.16 % dose/g
- Biodistribution: Brain ([1]; 60 min (1 hr) post injection): 0.02 ± 0.01 % dose/g
- Biodistribution: Heart ([1]; 60 min (1 hr) post injection): 0.17 ± 0.11 % dose/g
- Biodistribution: Kidney ([1]; 60 min (1 hr) post injection): 0.91 ± 0.32 % dose/g
- Biodistribution: Liver ([1]; 60 min (1 hr) post injection): 0.11 ± 0.02 % dose/g
- Biodistribution: Lung ([1]; 60 min (1 hr) post injection): 0.19 ± 0.04 % dose/g
- Biodistribution: Muscle ([1]; 60 min (1 hr) post injection): 0.11 ± 0.04 % dose/g
- Biodistribution: Pancreas ([1]; 60 min (1 hr) post injection): 0.13 ± 0.05 % dose/g
- Biodistribution: Skin ([1]; 60 min (1 hr) post injection): 0.09 ± 0.07 % dose/g
- Biodistribution: Spleen ([1]; 60 min (1 hr) post injection): 0.12 ± 0.02 % dose/g
- bone to blood ratio ([1]; 120 min): 12
- bone to muscle ratio ([1]; 120 min): 3.3
- Biodistribution: Blood ([1]; 120 min post injection): 0.01 ± 0.00 % dose/g
- Biodistribution: Bone ([1]; 120 min post injection): 0.18 ± 0.06 % dose/g
- Biodistribution: Brain ([1]; 120 min post injection): 0.02 ± 0.00 % dose/g
- Biodistribution: Heart ([1]; 120 min post injection): 0.09 ± 0.00 % dose/g
- Biodistribution: Kidney ([1]; 120 min post injection): 0.08 ± 0.05 % dose/g
- Biodistribution: Liver ([1]; 120 min post injection): 0.04 ± 0.02 % dose/g
- Biodistribution: Lung ([1]; 120 min post injection): 0.07 ± 0.02 % dose/g
- Biodistribution: Muscle ([1]; 120 min post injection): 0.05 ± 0.02 % dose/g
- Biodistribution: Pancreas ([1]; 120 min post injection): 0.07 ± 0.01 % dose/g
- Biodistribution: Skin ([1]; 120 min post injection): 0.03 ± 0.01 % dose/g
- Biodistribution: Spleen ([1]; 120 min post injection): 0.13 ± 0.03 % dose/g
- Hydroxyapatite Binding (%) [2]: 0.4±0.1%

Structure (SMILES): O=C([O-])CN(CCN(CC(=O)[O-])Cc1cc(CCC(=O)N[C@@H](CCC(=O)O)C(=O)O)ccc1[O-])Cc1cc(CCC(=O)NC(P(=O)(O)O)P(=O)(O)O)ccc1[O-].[68Ga+3] [[^68Ga]1f]
- bone to blood ratio ([1]; 2 min): 1
- bone to muscle ratio ([1]; 2 min): 4
- Biodistribution: Blood ([1]; 2 min post injection): 8.98 ± 0.68 % dose/g
- Biodistribution: Bone ([1]; 2 min post injection): 8.62 ± 0.23 % dose/g
- Biodistribution: Brain ([1]; 2 min post injection): 0.22 ± 0.00 % dose/g
- Biodistribution: Heart ([1]; 2 min post injection): 3.53 ± 0.57 % dose/g
- Biodistribution: Kidney ([1]; 2 min post injection): 24.7 ± 3.13 % dose/g
- Biodistribution: Liver ([1]; 2 min post injection): 2.43 ± 0.27 % dose/g
- Biodistribution: Lung ([1]; 2 min post injection): 5.01 ± 0.81 % dose/g
- Biodistribution: Muscle ([1]; 2 min post injection): 2.10 ± 0.12 % dose/g
- Biodistribution: Pancreas ([1]; 2 min post injection): 1.96 ± 0.15 % dose/g
- Biodistribution: Skin ([1]; 2 min post injection): 2.62 ± 0.11 % dose/g
- Biodistribution: Spleen ([1]; 2 min post injection): 2.20 ± 0.26 % dose/g
- bone to blood ratio ([1]; 30 min): 33
- bone to muscle ratio ([1]; 30 min): 74
- Biodistribution: Blood ([1]; 30 min (0.5 hr) post injection): 0.52 ± 0.05 % dose/g
- Biodistribution: Bone ([1]; 30 min (0.5 hr) post injection): 16.8 ± 1.66 % dose/g
- Biodistribution: Brain ([1]; 30 min (0.5 hr) post injection): 0.02 ± 0.00 % dose/g
- Biodistribution: Heart ([1]; 30 min (0.5 hr) post injection): 0.23 ± 0.01 % dose/g
- Biodistribution: Kidney ([1]; 30 min (0.5 hr) post injection): 2.05 ± 0.52 % dose/g
- Biodistribution: Liver ([1]; 30 min (0.5 hr) post injection): 0.28 ± 0.02 % dose/g
- Biodistribution: Lung ([1]; 30 min (0.5 hr) post injection): 0.42 ± 0.03 % dose/g
- Biodistribution: Muscle ([1]; 30 min (0.5 hr) post injection): 0.23 ± 0.01 % dose/g
- Biodistribution: Pancreas ([1]; 30 min (0.5 hr) post injection): 0.15 ± 0.01 % dose/g
- Biodistribution: Skin ([1]; 30 min (0.5 hr) post injection): 0.49 ± 0.04 % dose/g
- Biodistribution: Spleen ([1]; 30 min (0.5 hr) post injection): 0.22 ± 0.03 % dose/g
- bone to blood ratio ([1]; 60 min): 78
- bone to muscle ratio ([1]; 60 min): 222
- Biodistribution: Blood ([1]; 60 min (1 hr) post injection): 0.18 ± 0.04 % dose/g
- Biodistribution: Bone ([1]; 60 min (1 hr) post injection): 14.4 ± 3.01 % dose/g
- Biodistribution: Brain ([1]; 60 min (1 hr) post injection): 0.01 ± 0.00 % dose/g
- Biodistribution: Heart ([1]; 60 min (1 hr) post injection): 0.11 ± 0.01 % dose/g
- Biodistribution: Kidney ([1]; 60 min (1 hr) post injection): 1.59 ± 0.72 % dose/g
- Biodistribution: Liver ([1]; 60 min (1 hr) post injection): 0.20 ± 0.02 % dose/g
- Biodistribution: Lung ([1]; 60 min (1 hr) post injection): 0.21 ± 0.01 % dose/g
- Biodistribution: Muscle ([1]; 60 min (1 hr) post injection): 0.06 ± 0.00 % dose/g
- Biodistribution: Pancreas ([1]; 60 min (1 hr) post injection): 0.08 ± 0.02 % dose/g
- Biodistribution: Skin ([1]; 60 min (1 hr) post injection): 0.15 ± 0.01 % dose/g
- Biodistribution: Spleen ([1]; 60 min (1 hr) post injection): 0.12 ± 0.04 % dose/g
- bone to blood ratio ([1]; 120 min): 180
- bone to muscle ratio ([1]; 120 min): 374
- Biodistribution: Blood ([1]; 120 min post injection): 0.09 ± 0.01 % dose/g
- Biodistribution: Bone ([1]; 120 min post injection): 16.7 ± 1.12 % dose/g
- Biodistribution: Brain ([1]; 120 min post injection): 0.01 ± 0.01 % dose/g
- Biodistribution: Heart ([1]; 120 min post injection): 0.07 ± 0.01 % dose/g
- Biodistribution: Kidney ([1]; 120 min post injection): 1.08 ± 0.20 % dose/g
- Biodistribution: Liver ([1]; 120 min post injection): 0.19 ± 0.01 % dose/g
- Biodistribution: Lung ([1]; 120 min post injection): 0.13 ± 0.01 % dose/g
- Biodistribution: Muscle ([1]; 120 min post injection): 0.04 ± 0.01 % dose/g
- Biodistribution: Pancreas ([1]; 120 min post injection): 0.04 ± 0.00 % dose/g
- Biodistribution: Skin ([1]; 120 min post injection): 0.09 ± 0.01 % dose/g
- Biodistribution: Spleen ([1]; 120 min post injection): 0.08 ± 0.01 % dose/g
- Hydroxyapatite Binding (%) [2]: 96.4 ± 1.2%
